Test results as given in patent publication US20260042755A1, “GPR6 INVERSE AGONISTS” (MapLight Therapeutics, Inc., priority 2022, published 2026).

How the values were obtained:
[1] = molecular target: T1, GPR6 (Homo sapiens, UniProt P46095); experiment: GPR6 antagonist functional cAMP assay (LANCE Ultra cAMP TR-FRET, CHO cells stably expressing GPR6); type: cell-based; conditions: procedure of Example 24
T1 construct: expressed in transfected cells; host or cells: CHO cells
Method in brief: (§1)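 Cells in Krebs-Ringer buffer with 0.1% BSA and 150 μM Ro 20-1724 PDE inhibitor were exposed to compounds for 45 min at 37 °C (0.1% DMSO). cAMP was read by TR-FRET at 665 nm; IC50s came from 4-parameter fits normalized to DMSO and reference compound.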

[2] = molecular target: T2, GPR3 (Homo sapiens, UniProt P46089); experiment: GPR3 antagonist functional cAMP assay (LANCE Ultra cAMP TR-FRET, CHO cells stably expressing GPR3); type: cell-based; conditions: procedure of Example 24
T2 construct: expressed in transfected cells; host or cells: CHO cells
T2 sequence (P46089 whole entry, species assumed): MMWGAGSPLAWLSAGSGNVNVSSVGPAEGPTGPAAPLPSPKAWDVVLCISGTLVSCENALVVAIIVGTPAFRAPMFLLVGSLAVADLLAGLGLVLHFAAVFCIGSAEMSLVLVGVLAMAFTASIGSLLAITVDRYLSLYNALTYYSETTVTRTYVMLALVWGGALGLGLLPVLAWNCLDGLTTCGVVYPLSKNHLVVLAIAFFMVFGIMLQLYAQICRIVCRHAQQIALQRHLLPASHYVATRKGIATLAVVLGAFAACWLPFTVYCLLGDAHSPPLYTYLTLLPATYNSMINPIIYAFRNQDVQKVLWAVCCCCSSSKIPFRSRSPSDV
Method in brief: as §1

T1 sequence (P46095 whole entry): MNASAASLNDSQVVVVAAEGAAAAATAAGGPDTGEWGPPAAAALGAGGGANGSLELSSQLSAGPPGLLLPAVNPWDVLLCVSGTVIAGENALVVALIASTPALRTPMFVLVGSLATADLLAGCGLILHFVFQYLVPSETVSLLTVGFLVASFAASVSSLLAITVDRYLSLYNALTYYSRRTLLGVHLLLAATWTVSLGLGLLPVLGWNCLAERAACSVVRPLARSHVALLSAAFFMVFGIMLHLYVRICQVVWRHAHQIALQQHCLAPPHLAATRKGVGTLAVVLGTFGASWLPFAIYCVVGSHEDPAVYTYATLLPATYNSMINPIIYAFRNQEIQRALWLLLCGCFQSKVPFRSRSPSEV

Row | SMILES | IC50 [1] | IC50 [2]
1 | CCn1cc(-c2nc3c(nc2N2CCC(Oc4ccc(F)cc4F)CC2)CCN(S(C)(=O)=O)C3)cn1 [Compound 269, 4-(2,4-difluorophenoxy)-1-[3-(1-ethyl-1H-pyrazol-4-yl)-6-methanesulfonyl-5H,6H,7H,8H-pyrido[3,4-b]pyrazin-2-yl]piperidine] | < 0.1 µM | 1 to 30 µM
2 | CCn1cc(-c2nc3c(nc2N2CCC(Oc4ccc(F)cc4F)CC2)CCN(C(=O)OC)C3)cn1 [Compound 273, methyl 2-[4-(2,4-difluorophenoxy)piperidin-1-yl]-3-(1-ethyl-1H-pyrazol-4-yl)-5H,6H,7H,8H-pyrido[3,4-b]pyrazine-6-carboxylate] | < 0.1 µM | 1 to 30 µM
3 | CCn1cc(-c2nc3c(nc2N2CCC(Oc4ccc(F)cc4F)CC2)CCN(C#N)C3)cn1 [Compound 274, 2-(4-(2,4-difluorophenoxy)piperidin-1-yl)-3-(1-ethyl-1H-pyrazol-4-yl)-7,8-dihydropyrido[3,4-b]pyrazine-6(5H)-carbonitrile] | < 0.1 µM | 1 to 30 µM
4 | CCn1cc(-c2nc3c(nc2N2CCC(Oc4ccc(F)cc4F)CC2)CCN(C(=O)COC)C3)cn1 [Compound 275, 1-{2-[4-(2,4-difluorophenoxy)piperidin-1-yl]-3-(1-ethyl-1H-pyrazol-4-yl)-5H,6H,7H,8H-pyrido[3,4-b]pyrazin-6-yl}-2-methoxyethan-1-one] | < 0.1 µM | 0.1 to 1 µM
5 | CC(=O)OC1CCCN(c2nc3c(nc2-c2cnn(C)c2)CN(Cc2ccccc2)CC3)C1 (centres unmarked) [Compound 278, 1-[6-benzyl-3-(1-methyl-1H-pyrazol-4-yl)-5H,6H,7H,8H-pyrido[3,4-b]pyrazin-2-yl]piperidin-3-yl acetate] | 1 to 30 µM | 1 to 30 µM
6 | COC1CCC(c2nc3c(nc2N2CCC(Oc4ccc(F)cc4F)CC2)CCN(C(C)=O)C3)C1 (centres unmarked) [Compound 279, 1-{2-[4-(2,4-difluorophenoxy)piperidin-1-yl]-3-(3-methoxycyclopentyl)-5H,6H,7H,8H-pyrido[3,4-b]pyrazin-6-yl}ethan-1-one] | 1 to 30 µM | 1 to 30 µM
7 | COc1ccc(C(=O)N2CCN(c3nc4c(nc3-c3cnn(C)c3)CN(C(C)=O)CC4)CC2)cc1 [Compound 283, 1-{2-[4-(4-methoxybenzoyl)piperazin-1-yl]-3-(1-methyl-1H-pyrazol-4-yl)-5H,6H,7H,8H-pyrido[3,4-b]pyrazin-6-yl}ethan-1-one] | 1 to 30 µM | 1 to 30 µM
8 | COc1ccc(C(=O)N2CCN(c3nc4c(nc3-c3cnn(C)c3)CN(C(C)=O)CC4)CC2)c(OC)c1 [Compound 287, 1-{2-[4-(2,4-dimethoxybenzoyl)piperazin-1-yl]-3-(1-methyl-1H-pyrazol-4-yl)-5H,6H,7H,8H-pyrido[3,4-b]pyrazin-6-yl}ethan-1-one] | ≥ 30 µM | ≥ 30 µM
9 | CCn1cc(-c2nc3cnccc3nc2N2CCC(Oc3cc(Cl)ccc3Cl)CC2)cn1 [Compound 288, 4-(2,5-dichlorophenoxy)-1-[3-(1-ethyl-1H-pyrazol-4-yl)pyrido[3,4-b]pyrazin-2-yl]piperidine] | < 0.1 µM | 1 to 30 µM
10 | CCn1cc(-c2nc3c(nc2N2CCC(Oc4ccc(F)cc4F)CC2)CCN(C(=O)C2CCCN2)C3)cn1 (centres unmarked) [Compound 291, 4-(2,4-difluorophenoxy)-1-[3-(1-ethyl-1H-pyrazol-4-yl)-6-(pyrrolidine-2-carbonyl)-5H,6H,7H,8H-pyrido[3,4-b]pyrazin-2-yl]piperidine] | < 0.1 µM | 1 to 30 µM
11 | CCn1cc(-c2nc3cnccc3nc2N2CCC(Oc3cc(Cl)ccc3F)CC2)cn1 [Compound 295, 4-(5-chloro-2-fluorophenoxy)-1-[3-(1-ethyl-1H-pyrazol-4-yl)pyrido[3,4-b]pyrazin-2-yl]piperidine] | < 0.1 µM | 1 to 30 µM
12 | CCOC(=O)N1CCc2nc(N3CCC(Oc4ccc(F)cc4F)CC3)c(-c3cnn(CC)c3)nc2C1 [Compound 299, ethyl 2-[4-(2,4-difluorophenoxy)piperidin-1-yl]-3-(1-ethyl-1H-pyrazol-4-yl)-5H,6H,7H,8H-pyrido[3,4-b]pyrazine-6-carboxylate] | < 0.1 µM | 1 to 30 µM

Other lines, results leading:

Row | IC50 [1] | IC50 [2] | SMILES
13 | < 0.1 µM | 1 to 30 µM | Cn1cc(-c2nc3cc(C(O)C(C)(C)O)ncc3nc2N2CCN(Cc3ccc(F)cc3F)CC2)cn1 (centres unmarked) [Compound 268, 1-(3-{4-[(2,4-difluorophenyl)methyl]piperazin-1-yl}-2-(1-methyl-1H-pyrazol-4-yl)pyrido[3,4-b]pyrazin-7-yl)-2-methylpropane-1,2-diol]
14 | 0.1 to 1 µM | 1 to 30 µM | CCn1cc(-c2nc3cnc(C(O)C(C)(C)O)cc3nc2N2CCN(Cc3ccc(F)cc3F)CC2)cn1 (centres unmarked) [Compound 270, 1-(2-{4-[(2,4-difluorophenyl)methyl]piperazin-1-yl}-3-(1-ethyl-1H-pyrazol-4-yl)pyrido[3,4-b]pyrazin-7-yl)-2-methylpropane-1,2-diol]
15 | < 0.1 µM | 0.1 to 1 µM | CCn1cc(-c2nc3c(nc2N2CCC(Oc4ccc(F)cc4F)CC2)CCN(C(=O)C(C)(C)O)C3)cn1 [Compound 276, 1-{2-[4-(2,4-difluorophenoxy)piperidin-1-yl]-3-(1-ethyl-1H-pyrazol-4-yl)-5H,6H,7H,8H-pyrido [3,4-b]pyrazin-6-yl}-2-hydroxy-2-methylpropan-1-one]
16 | 0.1 to 1 µM | 1 to 30 µM | Cn1cc(-c2nc3cnc(N)cc3nc2N2CCC(Oc3ccc(F)cc3F)CC2)cn1 [Compound 277, 2-[4-(2,4-difluorophenoxy)piperidin-1-yl]-3-(1-methyl-1H-pyrazol-4-yl)pyrido[3,4-b]pyrazin-7-amine]
17 | 1 to 30 µM | 1 to 30 µM | CC(=O)N1CCc2nc(N3CCN(Cc4ccccc4)CC3)c(-c3cnn(C)c3)nc2C1 [Compound 280, 1-[2-(4-benzylpiperazin-1-yl)-3-(1-methyl-1H-pyrazol-4-yl)-5H,6H,7H,8H-pyrido[3,4-b]pyrazin-6-yl]ethan-1-one]
18 | < 0.1 µM | 1 to 30 µM | CC(=O)N1CCc2nc(N3CCN(Cc4cc(Cl)ccc4Cl)CC3)c(-c3cnn(C)c3)nc2C1 [Compound 281, 1-(2-{4-[(2,5-dichlorophenyl)methyl]piperazin-1-yl}-3-(1-methyl-1H-pyrazol-4-yl)-5H,6H,7H,8H-pyrido[3,4-b]pyrazin-6-yl)ethan-1-one]
19 | ≥ 30 µM | ≥ 30 µM | COc1ccc(C(=O)N2CCN(c3nc4c(nc3-c3cnn(C)c3)CN(C(C)=O)CC4)CC2)cc1F [Compound 282, 1-{2-[4-(3-fluoro-4-methoxybenzoyl)piperazin-1-yl]-3-(1-methyl-1H-pyrazol-4-yl)-5H,6H,7H,8H-pyrido[3,4-b]pyrazin-6-yl}ethan-1-one]
20 | 1 to 30 µM | 1 to 30 µM | COc1ccc(C(=O)N2CCN(c3nc4c(nc3-c3cnn(C)c3)CN(C(C)=O)CC4)CC2)nc1 [Compound 284, 1-{2-[4-(5-methoxypyridine-2-carbonyl)piperazin-1-yl]-3-(1-methyl-1H-pyrazol-4-yl)-5H,6H,7H,8H-pyrido[3,4-b]pyrazin-6-yl}ethan-1-one]
21 | ≥ 30 µM | 1 to 30 µM | CC(=O)N1CCc2nc(N3CCN(C(=O)c4cc(F)cc(F)c4)CC3)c(-c3cnn(C)c3)nc2C1 [Compound 285, 1-{2-[4-(3,5-difluorobenzoyl)piperazin-1-yl]-3-(1-methyl-1H-pyrazol-4-yl)-5H,6H,7H,8H-pyrido[3,4-b]pyrazin-6-yl}ethan-1-one]
22 | 1 to 30 µM | ≥ 30 µM | CC(=O)N1CCc2nc(N3CCN(C(=O)c4ccc(F)cc4C#N)CC3)c(-c3cnn(C)c3)nc2C1 [Compound 286, 2-{4-[6-acetyl-3-(1-methyl-1H-pyrazol-4-yl)-5H,6H,7H,8H-pyrido[3,4-b]pyrazin-2-yl]piperazine-1-carbonyl}-5-fluorobenzonitrile]
23 | 1 to 30 µM | 1 to 30 µM | Cn1cc(-c2nc3cnc(Cl)cc3nc2N2CCC(Oc3ccc(F)cc3F)CC2)cn1 [Compound 289, 7-chloro-2-(4-(2,4-difluorophenoxy)piperidin-1-yl)-3-(1-methyl-1H-pyrazol-4-yl)pyrido[3,4-b]pyrazine]
24 | 1 to 30 µM | 1 to 30 µM | Cn1cc(-c2nc3cnc(C#N)cc3nc2N2CCC(Oc3ccc(F)cc3F)CC2)cn1 [Compound 293, 2-[4-(2,4-difluorophenoxy)piperidin-1-yl]-3-(1-methyl-1H-pyrazol-4-yl)pyrido[3,4-b]pyrazine-7-carbonitrile]
25 | < 0.1 µM | 1 to 30 µM | CCn1cc(-c2nc3cnc(N)cc3nc2N2CCC(Oc3ccc(F)cc3F)CC2)cn1 [Compound 294, 2-[4-(2,4-difluorophenoxy)piperidin-1-yl]-3-(1-ethyl-1H-pyrazol-4-yl)pyrido[3,4-b]pyrazin-7-amine]
26 | 1 to 30 µM | 1 to 30 µM | CC(=O)Nc1cc2nc(N3CCC(Oc4ccc(F)cc4F)CC3)c(-c3cnn(C)c3)nc2cn1 [Compound 296, N-{2-[4-(2,4-difluorophenoxy)piperidin-1-yl]-3-(1-methyl-1H-pyrazol-4-yl)pyrido[3,4-b]pyrazin-7-yl}acetamide]
27 | 1 to 30 µM | 1 to 30 µM | CC(=O)Nc1cc2nc(N3CCN(Cc4ccc(F)cc4F)CC3)c(-c3cnn(C)c3)nc2cn1 [Compound 297, N-(2-{4-[(2,4-difluorophenyl)methyl]piperazin-1-yl}-3-(1-methyl-1H-pyrazol-4-yl)pyrido[3,4-b]pyrazin-7-yl)acetamide]
28 | 0.1 to 1 µM | 1 to 30 µM | CC(C)n1cc(-c2nc3cnc(C(O)C(C)(C)O)cc3nc2N2CCN(Cc3ccc(F)cc3F)CC2)cn1 (centres unmarked) [Compound 298, 1-(2-{4-[(2,4-difluorophenyl)methyl]piperazin-1-yl}-3-[1-(propan-2-yl)-1H-pyrazol-4-yl]pyrido[3,4-b]pyrazin-7-yl)-2-methylpropane-1,2-diol]
